Experimental data taken from PubChem BioAssay AID256 (DTP/NCI, 2004).
“And” between values parts separate entries of the source, which are not always exact repeats. Equal values may be shown once. Toxic doses and inconclusive results are not listed.

Tested on: CD2F1 mice, L1210 leukemia ip, survival T/C
Experiment: NCI In Vivo Anticancer Drug Screen. Data for tumor model L1210 Leukemia (intraperitoneal) in CD2F1 (CDF1) mice
Conditions: higher = longer survival
In short: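 Implant tumor; dose compound or vehicle; measure endpoint in both groups; report treated divided by control.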

[1] = endpoint: mean survival time, dose: 100.0 mg/kg/injection, schedule: Q01DX009 (ip), vehicle: saline
[2] = endpoint: mean survival time, dose: 200.0 mg/kg/injection, schedule: Q01DX009 (ip), vehicle: saline
[3] = endpoint: mean survival time, dose: 12.5 mg/kg/injection, schedule: Q01DX009 (ip), vehicle: saline
[4] = endpoint: mean survival time, dose: 25.0 mg/kg/injection, schedule: Q01DX009 (ip), vehicle: saline
[5] = endpoint: mean survival time, dose: 50.0 mg/kg/injection, schedule: Q01DX009 (ip), vehicle: saline
[6] = endpoint: mean survival time, dose: 100.0 mg/kg/injection, schedule: Q04DX003 (ip), vehicle: saline with Tween-80
[7] = endpoint: mean survival time, dose: 200.0 mg/kg/injection, schedule: Q04DX003 (ip), vehicle: saline with Tween-80
[8] = endpoint: mean survival time, dose: 400.0 mg/kg/injection, schedule: Q04DX003 (ip), vehicle: saline with Tween-80
[9] = endpoint: mean survival time, dose: 100.0 mg/kg/injection, schedule: Q01DX001 (ip), vehicle: saline with Tween-80
[10] = endpoint: mean survival time, dose: 200.0 mg/kg/injection, schedule: Q01DX001 (ip), vehicle: saline with Tween-80
[11] = endpoint: mean survival time, dose: 400.0 mg/kg/injection, schedule: Q01DX001 (ip), vehicle: saline with Tween-80

CCOC1(OCC)C2C=CC1C(C#N)(C#N)C2(C#N)C#N
T/C (endpoint: mean survival time, dose: 75.0 mg/kg/injection, schedule: Q01DX001 (ip), vehicle: saline): 103 % of control | T/C (endpoint: mean survival time, dose: 150.0 mg/kg/injection, schedule: Q01DX001 (ip), vehicle: saline): 104 % of control

NC(=O)c1[nH]cnc1NN=NCCF
T/C (endpoint: mean survival time, dose: 25.0 mg/kg/injection, schedule: Q01DX001 (ip), vehicle: Klucel (hydroxypropylcellulose) (HPC)): 320 % of control

N#CCCCN1CCOCC1
T/C [1]: 101 % of control | T/C [2]: 102 % of control | T/C (endpoint: mean survival time, dose: 400.0 mg/kg/injection, schedule: Q01DX009 (ip), vehicle: saline): 98 % of control

CSc1nc(N)c2c3c(N)ncnc3n(C3OC(CO)C(O)C3O)c2n1 (centres undefined)
T/C (endpoint: mean survival time, dose: 25.0 mg/kg/injection, schedule: Q01DX005 (ip), vehicle: distilled water + Tween-80): 97 % of control | T/C (endpoint: mean survival time, dose: 50.0 mg/kg/injection, schedule: Q01DX005 (ip), vehicle: distilled water + Tween-80): 91 % of control | T/C (endpoint: mean survival time, dose: 100.0 mg/kg/injection, schedule: Q01DX005 (ip), vehicle: distilled water + Tween-80): 91 % of control | T/C (endpoint: mean survival time, dose: 200.0 mg/kg/injection, schedule: Q01DX005 (ip), vehicle: distilled water + Tween-80): 97 % of control | T/C (endpoint: mean survival time, dose: 400.0 mg/kg/injection, schedule: Q01DX005 (ip), vehicle: distilled water + Tween-80): 101 % of control

CCCCCCC(=O)CC(SCC)c1ccccc1Cl (centres undefined)
T/C (endpoint: median survival time, dose: 25.0 mg/kg/injection, schedule: Q01DX009 (ip), vehicle: saline with Tween-80): 100 % of control | T/C (endpoint: median survival time, dose: 50.0 mg/kg/injection, schedule: Q01DX009 (ip), vehicle: saline with Tween-80): 104 % of control | T/C (endpoint: median survival time, dose: 100.0 mg/kg/injection, schedule: Q01DX009 (ip), vehicle: saline with Tween-80): 100 % of control | T/C (endpoint: median survival time, dose: 200.0 mg/kg/injection, schedule: Q01DX009 (ip), vehicle: saline with Tween-80): 97 % of control | T/C (endpoint: median survival time, dose: 400.0 mg/kg/injection, schedule: Q01DX009 (ip), vehicle: saline with Tween-80): 98 % of control

O=C(O)c1ccccc1.[Cu+2]
T/C (endpoint: mean survival time, dose: 5.0 mg/kg/injection, schedule: Q01DX001 (ip), vehicle: saline): 96 % of control | T/C (endpoint: mean survival time, dose: 10.0 mg/kg/injection, schedule: Q01DX001 (ip), vehicle: saline): 91 % of control | T/C (endpoint: mean survival time, dose: 20.0 mg/kg/injection, schedule: Q01DX001 (ip), vehicle: saline): 107 % of control | T/C (endpoint: mean survival time, dose: 40.0 mg/kg/injection, schedule: Q01DX001 (ip), vehicle: saline): 102 % of control | T/C (endpoint: mean survival time, dose: 80.0 mg/kg/injection, schedule: Q01DX001 (ip), vehicle: saline): 107 % of control

O=S(=O)(CC(Br)C(Br)CO)c1ccccc1 (centres undefined)
T/C (endpoint: median survival time, dose: 25.0 mg/kg/injection, schedule: Q04DX003 (ip), vehicle: saline with Tween-80): 111 % of control | T/C (endpoint: median survival time, dose: 50.0 mg/kg/injection, schedule: Q04DX003 (ip), vehicle: saline with Tween-80): 122 % of control | T/C (endpoint: median survival time, dose: 100.0 mg/kg/injection, schedule: Q04DX003 (ip), vehicle: saline with Tween-80): 111 % of control | T/C (endpoint: median survival time, dose: 200.0 mg/kg/injection, schedule: Q04DX003 (ip), vehicle: saline with Tween-80): 100 % of control

NCCSc1ccccc1
T/C (endpoint: mean survival time, dose: 12.5 mg/kg/injection, schedule: Q01DX009 (ip), vehicle: saline with Tween-80): 89 % of control | T/C (endpoint: mean survival time, dose: 25.0 mg/kg/injection, schedule: Q01DX009 (ip), vehicle: saline with Tween-80): 89 % of control | T/C (endpoint: mean survival time, dose: 50.0 mg/kg/injection, schedule: Q01DX009 (ip), vehicle: saline with Tween-80): 90 % of control and 108 % of control | T/C (endpoint: mean survival time, dose: 100.0 mg/kg/injection, schedule: Q01DX009 (ip), vehicle: saline with Tween-80): 87 % of control and 98 % of control

C=CCN(CC=C)C(=S)Nc1cccc(Br)c1
T/C (endpoint: mean survival time, dose: 100.0 mg/kg/injection, schedule: Q01DX009 (ip), vehicle: other): 96 % of control | T/C (endpoint: mean survival time, dose: 200.0 mg/kg/injection, schedule: Q01DX009 (ip), vehicle: other): 95 % of control | T/C (endpoint: mean survival time, dose: 400.0 mg/kg/injection, schedule: Q01DX009 (ip), vehicle: other): 101 % of control

Cc1cc(C(C(N)=O)c2ccccc2)ccc1N(CCCl)CCCl (centres undefined)
T/C (endpoint: mean survival time, dose: 88.8 mg/kg/injection, schedule: Q01DX001 (ip), vehicle: other): 122 % of control | T/C (endpoint: mean survival time, dose: 300.0 mg/kg/injection, schedule: Q01DX001 (ip), vehicle: other): 104 % of control

O=C1C(Cl)=CC(=NS(=O)(=O)c2ccccc2)C=C1Cl
T/C (endpoint: mean survival time, dose: 6.25 mg/kg/injection, schedule: Q04DX003 (ip), vehicle: saline with Tween-80): 100 % of control | T/C (endpoint: mean survival time, dose: 12.5 mg/kg/injection, schedule: Q04DX003 (ip), vehicle: saline with Tween-80): 94 % of control | T/C (endpoint: mean survival time, dose: 25.0 mg/kg/injection, schedule: Q04DX003 (ip), vehicle: saline with Tween-80): 103 % of control

Cc1cccc(N2CCN(CCO)CC2)c1
T/C [3]: 109 % of control | T/C [4]: 102 % of control | T/C [5]: 100 % of control

CCCCCCCCCCOc1ccc(/C=N\N=C\c2ccc(OCCCCCCCCCC)cc2)cc1
T/C [6]: 94 % of control | T/C [7]: 94 % of control | T/C [8]: 92 % of control

O=S(c1ccccc1)C1OC12CCCCC2 (centres undefined)
T/C [6]: 97 % of control | T/C [7]: 98 % of control | T/C [8]: 97 % of control

O=C1N(CCc2ccccc2)CC2C(c3ccccc3)NNC12O (centres undefined)
T/C [9]: 96 % of control | T/C [10]: 87 % of control | T/C [11]: 87 % of control

COC(OC)c1[nH]c(=S)[nH]c(=O)c1Cc1cccc(Cl)c1
T/C (endpoint: mean survival time, dose: 100.0 mg/kg/injection, schedule: Q04DX003 (ip), vehicle: saline sonified): 95 % of control | T/C (endpoint: mean survival time, dose: 200.0 mg/kg/injection, schedule: Q04DX003 (ip), vehicle: saline sonified): 101 % of control | T/C (endpoint: mean survival time, dose: 400.0 mg/kg/injection, schedule: Q04DX003 (ip), vehicle: saline sonified): 108 % of control

CC1(C)OCC(C(=O)C(OC(=O)c2ccccc2)C2COC(C)(C)O2)O1 (centres undefined)
T/C (endpoint: mean survival time, dose: 50.0 mg/kg/injection, schedule: Q01DX009 (ip), vehicle: Klucel (hydroxypropylcellulose) (HPC)): 94 % of control | T/C (endpoint: mean survival time, dose: 100.0 mg/kg/injection, schedule: Q01DX009 (ip), vehicle: Klucel (hydroxypropylcellulose) (HPC)): 88 % of control | T/C (endpoint: mean survival time, dose: 200.0 mg/kg/injection, schedule: Q01DX009 (ip), vehicle: Klucel (hydroxypropylcellulose) (HPC)): 98 % of control

CCCCCCCCCCCCCC(=O)N(C)C
T/C [5]: 92 % of control | T/C [1]: 98 % of control | T/C [6]: 95 % of control | T/C [2]: 95 % of control | T/C [7]: 103 % of control

C=CCCCCCCCCC(=O)NCc1ccccn1
T/C [9]: 93 % of control | T/C [10]: 102 % of control | T/C [11]: 91 % of control

CN(C)CCCNC/C=C\CNCCCN(C)C
T/C (endpoint: mean survival time, dose: 100.0 mg/kg/injection, schedule: Q04DX003 (ip), vehicle: saline): 101 % of control | T/C (endpoint: mean survival time, dose: 200.0 mg/kg/injection, schedule: Q04DX003 (ip), vehicle: saline): 101 % of control

O=NN(CCCl)C(=O)Nc1ccc(CCO)cc1
T/C (endpoint: mean survival time, dose: 0.31 mg/kg/injection, schedule: Q01DX001 (ip), vehicle: other): 103 % of control | T/C (endpoint: mean survival time, dose: 0.62 mg/kg/injection, schedule: Q01DX001 (ip), vehicle: other): 97 % of control | T/C (endpoint: mean survival time, dose: 1.25 mg/kg/injection, schedule: Q01DX001 (ip), vehicle: other): 105 % of control | T/C (endpoint: mean survival time, dose: 2.03 mg/kg/injection, schedule: Q01DX009 (ip), vehicle: acetone): 205 % of control | T/C (endpoint: mean survival time, dose: 2.5 mg/kg/injection, schedule: Q01DX001 (ip), vehicle: other): 120 % of control | T/C (endpoint: mean survival time, dose: 3.08 mg/kg/injection, schedule: Q01DX009 (ip), vehicle: saline with Tween-80): 203 % of control | T/C (endpoint: mean survival time, dose: 4.62 mg/kg/injection, schedule: Q01DX009 (ip), vehicle: saline with Tween-80): 300 % of control | T/C (endpoint: mean survival time, dose: 9.75 mg/kg/injection, schedule: Q01DX001 (ip), vehicle: other): 277 % of control | T/C (endpoint: mean survival time, dose: 19.5 mg/kg/injection, schedule: Q01DX001 (ip), vehicle: other): 361 % of control | T/C (endpoint: mean survival time, dose: 39.0 mg/kg/injection, schedule: Q01DX001 (ip), vehicle: other): 98 % of control | T/C (endpoint: mean survival time, dose: 100.0 mg/kg/injection, schedule: Q01DX001 (ip), vehicle: carboxymethylcellulose (CMC)): 172 % of control | T/C (endpoint: mean survival time, dose: 200.0 mg/kg/injection, schedule: Q01DX001 (ip), vehicle: carboxymethylcellulose (CMC)): 170 % of control | T/C (endpoint: mean survival time, dose: 400.0 mg/kg/injection, schedule: Q01DX001 (ip), vehicle: carboxymethylcellulose (CMC)): 307 % of control

Brc1ccc([Si](c2ccccc2)(c2ccccc2)c2ccc(Br)cc2)cc1
T/C [6]: 102 % of control | T/C [7]: 108 % of control | T/C [8]: 106 % of control

C1CCc2nnnn2CC1
T/C [3]: 98 % of control | T/C [4]: 103 % of control | T/C [5]: 95 % of control
